For eight compounds, IC50 results are on record in patent US20110183954A1, “TRICYCLIC 2,4-DIAMINO-L,3,5-TRIAZINE DERIVATIVES USEFUL FOR THE TREATMENT OF CANCER AND MYELOPROLIFERATIVE DISORDERS” (ASTRAZENECA AB, priority 2008, published 2011).

Holding throughout (type): biochemical
The target of assay [1] is T1, human JAK2 (Homo sapiens, UniProt O60674). In words: Method 1 (JAK2): Amplified Luminescent Proximity Assay (Alphascreen). On the set-up: His6 (C); purchased Upstate Biotechnology; host or cells: baculovirus in Sf21 cells. As to conditions: 150 pM JAK2 enzyme, 5 mM ATP, 60 minutes, room temperature, read-out: IC50 (JAK inhibitory activity, Method 1 (JAK2)). The text has this: JAK2 kinase activity may be determined by measuring the kinase's ability to phosphorylate synthetic tyrosine residues within a generic polypeptide substrate using an Amplified Luminescent Proximity Assay (Alphascreen) technology (PerkinElmer, 549 Albany Street, Boston, Mass.).
To measure JAK2 kinase activity, a commercially available purified enzyme may be used. The enzyme may be a C-terminal His6-tagged, recombinant, human JAK2, amino acids 808-end, (Genbank Accession number NM 004972) expressed by baculovirus in Sf21 cells (Upstate Biotechnology MA). After incubation of the kinase with a biotinylated substrate and adenosine triphosphate (ATP) for 60 minutes at room temperature, the kinase reaction may be stopped by the addition of 30 mM ethylenediaminetetraacetic acid (EDTA). The reaction may be performed in 384 well microtitre plates and the reaction products may be detected with the addition of streptavidin coated Donor Beads and phosphotyrosine-specific antibodies coated Acceptor Beads using the EnVision Multilabel Plate Reader after an overnight incubation at room temperature.
Target sequence in this assay (O60674 808-1132 limits assumed): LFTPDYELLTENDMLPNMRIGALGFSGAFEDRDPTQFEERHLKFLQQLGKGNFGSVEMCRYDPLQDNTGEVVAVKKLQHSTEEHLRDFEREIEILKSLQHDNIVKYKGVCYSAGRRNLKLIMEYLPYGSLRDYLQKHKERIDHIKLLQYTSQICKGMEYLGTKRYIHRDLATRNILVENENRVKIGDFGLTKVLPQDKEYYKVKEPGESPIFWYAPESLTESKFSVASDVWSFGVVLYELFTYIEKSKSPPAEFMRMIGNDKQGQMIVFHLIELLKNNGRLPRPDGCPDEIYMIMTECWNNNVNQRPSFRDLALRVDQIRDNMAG

In assay [2] the target is T2, JAK1 (Homo sapiens, UniProt P23458).
T2 construct: catalytic domain (amino acids 866-1154), GST-tagged, expressed in insect cells; GST; purchased Invitrogen; host or cells: insect cells
In words: Method 1 (JAK1): mobility shift assay on Caliper LC3000 reader. As to conditions: 3.5 nM JAK1 enzyme, 5 mM ATP, 90 minutes, room temperature; read-out: IC50 (JAK inhibitory activity, Method 1 (JAK1)). The text has this:
Janus kinase 1 (JAK1) activity may be determined by measuring the kinase's ability to phosphorylate a tyrosine residue within a peptide substrate using a mobility shift assay on a Caliper LC3000 reader (Caliper, Hopkinton, Mass.), which measures fluorescence of the phosphorylated and unphosphorylated substrate and calculates a ratiometric value to determine percent turnover.
To measure JAK1 kinase activity, a commercially available purified enzyme may be used. The enzyme may be a recombinant human, catalytic domain (amino acids 866-1154), GST-tagged, expressed in insect cells (Invitrogen, Carlsbad, Calif.). After incubation of the kinase with a FITC labeled JAK1 substrate, adenosine triphosphate (ATP), and MgCl2 for 90 minutes at room temperature, the kinase reaction may be stopped by the addition of 36 mM ethylenediaminetetraacetic acid (EDTA). The reaction may be performed in 384 well microtitre plates and the reaction products may be detected using the Caliper LC3000 Reader.

Assay [3] addresses T1, human JAK2. Nature of the assay: Method 2 (JAK2): mobility shift assay on Caliper LC3000 reader, 5 mM ATP. As to conditions: 0.3 nM JAK2 enzyme, 90 minutes, read-out: IC50 (JAK inhibitory activity, Method 2 (JAK2)). The arrangement: human JAK2 (amino acids 831-1132, PLAZA database pAZB0359) expressed in insect cells; GST (N); made in house; host or cells: insect cells. The text has this:
Alternatively, Janus kinase 2 (JAK2) activity may be determined by measuring the kinase's ability to phosphorylate a tyrosine residue within a peptide substrate using a mobility shift assay on a Caliper LC3000 reader (Caliper, Hopkinton, Mass.), which measures fluorescence of the phosphorylated and unphosphorylated substrate and calculates a ratiometric value to determine percent turnover.
To measure JAK2 kinase activity, an in-house purified enzyme may be used. The enzyme may be a N-terminal GST-tagged, recombinant, human JAK2 (amino acids 831-1132, PLAZA database pAZB0359) expressed in insect cells. After incubation of the kinase with a FAM labeled SRCtide substrate, adenosine triphosphate (ATP), and MgCl2 for 90 minutes at room temperature, the kinase reaction may be stopped by the addition of 36 mM ethylenediaminetetraacetic acid (EDTA). The reaction may be performed in 384 well microtitre plates and the reaction products may be detected using the Caliper LC3000 Reader.
Target sequence in this assay (O60674 831-1132): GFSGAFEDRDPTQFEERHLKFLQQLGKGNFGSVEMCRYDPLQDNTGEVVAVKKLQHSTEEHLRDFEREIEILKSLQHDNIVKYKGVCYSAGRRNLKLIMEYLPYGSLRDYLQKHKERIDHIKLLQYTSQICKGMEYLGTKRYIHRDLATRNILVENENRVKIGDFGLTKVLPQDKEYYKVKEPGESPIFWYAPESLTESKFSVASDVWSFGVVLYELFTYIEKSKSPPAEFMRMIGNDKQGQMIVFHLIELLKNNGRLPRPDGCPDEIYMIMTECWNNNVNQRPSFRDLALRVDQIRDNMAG

T2 sequence (P23458 866-1154): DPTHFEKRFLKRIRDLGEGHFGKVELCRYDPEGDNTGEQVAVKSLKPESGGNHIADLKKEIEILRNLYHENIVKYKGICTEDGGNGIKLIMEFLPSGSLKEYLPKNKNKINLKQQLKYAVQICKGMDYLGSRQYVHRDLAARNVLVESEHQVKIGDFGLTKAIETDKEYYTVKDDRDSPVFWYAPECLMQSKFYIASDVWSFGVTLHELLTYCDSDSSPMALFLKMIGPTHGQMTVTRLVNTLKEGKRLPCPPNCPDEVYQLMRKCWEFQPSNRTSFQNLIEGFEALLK

The term IC50 denotes the concentration that gives 50% inhibition. Turning to `C[C@H](Nc1nc(Nc2cn(C)cn2)nc(N2CCOCC2)n1)c1ccc(Cl)cc1` [Example 29, N-[(1S)-1-(4-Chlorophenyl)ethyl]-N′-(1-methyl-1H-imidazol-4-yl)-6-morpholin-4-yl-1,3,5-triazine-2,4-diamine], the IC50 in assay [1] amounted to 4 nM; in assay [2], 510 nM.
With `[2H]C1([2H])OC([2H])([2H])C([2H])([2H])N(c2nc(Nc3cn(C)cn3)nc(NC(C)c3ncc(F)cc3F)n2)C1([2H])[2H]` (single isomer, unassigned) [Example 11a, N-[1-(3,5-Difluoropyridin-2-yl)ethyl]-N′-(1-methyl-1H-imidazol-4-yl)-6-(^2H8)morpholin-4-yl-1,3,5-triazine-2,4-diamine], the results for the IC50 in assay [3] and in assay [2] were 986 nM and 780 nM, respectively.
The matching figures for `[2H]C1([2H])OC([2H])([2H])C([2H])([2H])N(c2nc(Nc3cn(C)cn3)nc(NC(C)c3ncc(F)cc3F)n2)C1([2H])[2H]` (single isomer, unassigned) [Example 11b, N-[1-(3,5-Difluoropyridin-2-yl)ethyl]-N′-(1-methyl-1H-imidazol-4-yl)-6-(^2H8)morpholin-4-yl-1,3,5-triazine-2,4-diamine]: 21 nM and 15 nM.
Consider `C[C@H](Nc1nc(Nc2cn(C)cn2)nc(N2CCOCC2)n1)c1ccc(F)cc1` [Example 30, N-[(1S)-1-(4-fluorophenyl)ethyl]-N′-(1-methyl-1H-imidazol-4-yl)-6-morpholin-4-yl-1,3,5-triazine-2,4-diamine], for which the values for the IC50 in assay [1] and in assay [2] were under 3 nM and 65 nM, respectively.
As for `Cn1cnc(Nc2nc(NC(CNC(=O)OC(C)(C)C)c3ccc(F)cc3)nc(N3CCOCC3)n2)c1` (single isomer, unassigned) [Example 24b, tert-Butyl [2-(4-fluorophenyl)-2-({4-[(1-methyl-1H-imidazol-4-yl)amino]-6-morpholin-4-yl-1,3,5-triazin-2-yl}amino)ethyl]carbamate], the IC50 was 1710 nM in assay [3] and 1020 nM in assay [2].
`Cn1cnc(Nc2nc(NC(c3ccc(F)cc3)C3CCCC3)nc(N3CCOCC3)n2)c1` (stereo not shown) [Example 27, N-[Cyclopentyl(4-fluorophenyl)methyl]-N′-(1-methyl-1H-imidazol-4-yl)-6-morpholin-4-yl-1,3,5-triazine-2,4-diamine]: the IC50 was 966 nM in assay [3] and 1980 nM in assay [2].
Taken in the same sequence, the figures for `Cn1cnc(Nc2nc(NC(c3ccc(F)cc3)c3nccn3C)nc(N3CCOCC3)n2)c1` (single isomer, unassigned) [Example 25b, N-[(4-Fluorophenyl)(1-methyl-1H-imidazol-2-yl)methyl]-N′-(1-methyl-1H-imidazol-4-yl)-6-morpholin-4-yl-1,3,5-triazine-2,4-diamine] were over 30000 nM and 30000 nM.
Turning to `Cn1cnc(Nc2nc(NC(CNC(=O)OC(C)(C)C)c3ccc(F)cc3)nc(N3CCOCC3)n2)c1` (single isomer, unassigned) [Example 24a, tert-Butyl [2-(4-fluorophenyl)-2-({4-[(1-methyl-1H-imidazol-4-yl)amino]-6-morpholin-4-yl-1,3,5-triazin-2-yl}amino)ethyl]carbamate], the values for the IC50 in assay [3] and in assay [2] were 73 nM and 83 nM, respectively.
